pIC50: −log10 of the molar value.
Tested on: HDAC (nuclear fraction of Hela cells)
Test: Assay of enzyme inhibition of HDAC (BIOMOL Kit, fluorescence)
Assay type: biochemical
Settings: 30× diluted nuclear fraction of Hela cells; substrate 200 μM; 15 min at RT
Procedure: The in-vitro activity of HDAC inhibitors was assayed by means of a biochemical assay using a BIOMOL Kit, according to the instructions from the manufacturer (Biomolecular Research Laborator). Briefly, 15 μl of 30× diluted nuclear fraction of Hela cells, was diluted to 50 μl with the assay buffer containing the HDAC inhibitor and the substrate (lysine with acetylated amino on the side chain) at a concentration of 200 μM. The samples were incubated for 15 min at RT and then exposed to a developer (10 min at RT). In this last step a fluorophore was produced, whose fluorescence was measured using an excitation wavelength of 355 nm and an emission at 460 nm. The IC50 is calculated using GraphPad Software.
The reference HDAC inhibitors marked with (*) are those disclosed in the patent application WO2006/037761.

Structure (SMILES)	pIC50
CN1CCN(c2cc(Cl)cc(C(=O)/C=C/c3cccc(/C=C/C(=O)NO)n3)c2)CC1 [Example 11, (E)-3-(6-{(E)-3-[3-Chloro-5-(4-methyl-piperazin-1-yl)-phenyl]-3-oxo-propenyl}-pyridin-2-yl)-N-hydroxy-acrylamide]	7.54
O=C(/C=C/c1ccc(/C=C/C(=O)c2ccc(N3CCOCC3)cc2)c(F)c1)NO [Ref (*) 29, reference compound]	5.55
O=C(/C=C/c1ccc(/C=C/C(=O)c2ccc(N3CCOCC3)cc2)cc1)NO [Ref (*) 41, reference compound]	5.87
O=C(/C=C/c1cccc(/C=C/C(=O)c2ccccc2Cl)c1)NO [Ref (*)MC1670, reference compound]	6.41

More lines, in order of rising pIC50, values ahead:

pIC50	Structure (SMILES)
5.84	O=C(/C=C/c1cccc(/C=C/C(=O)c2cccc(Cl)c2)c1)NO [Ref (*)MC1672, reference compound]
5.86	O=C(/C=C/c1cccc(/C=C/C(=O)c2cccc(F)c2)c1)NO [Ref (*)MC1653, reference compound]
6.89	O=C(/C=C/c1cccc(/C=C/C(=O)c2ccccc2F)c1)NO [Ref (*)MC1661, reference compound]
7.13	COc1cc(C(=O)/C=C/c2ccc(/C=C/C(=O)NO)cc2)ccc1CN1CCOCC1 [Ref (*) 48, reference compound]

Reference: US20120115867A1, “NEW CLASS OF HISTONE DEACETYLASE INHIBITORS” (DAC S.R.L., priority 2004, published 2012)
